Results: patent publication US6313090A, “Methods for treating parasitic infection using thiopeptides” (The United States of America as represented by the …, priority 2000, dated 2001)
Like-named read-outs stand apart in the source and are kept apart here.

System: C. parvum GCH1 oocysts
Assay: Intact C. parvum oocyst assay on MDBKF5D2 cell monolayers, immunofluorescence
Assay type: cell-based
Settings: for inhibition at 2000 µg/mL / inhibition at 250 µg/mL / inhibition at 500 µg/mL / inhibition at 1000 µg/mL: Cryptosporidium parvum
Protocol: In vitro doses of drugs. Thiostrepton (Calbiochem) was dissolved in sterile complete Dulbecco's Modified Eagle Medium (DMEM) supplemented with dimethyl sulfoxide (DMSO) at 0.2% and tested at concentrations of 800, 400, 200, and 100, 10, 1 and 0.1 μg/ml.
(§1) Intact C. parvum oocyst asset 3.0×10^4 C. parvum GCH1 oocysts per well were incubated in the above-mentioned concentrations of drug at 37° C. (8% CO2) on confluent MDBKF5D2 cell monolayers in 96 well microtiter plates. The level of infection in each well was determined and analyzed by immunofluorescence assay at 48 hours, using C. parvum sporozoite rabbit anti-serum (0.1%) and fluorescein-conjugated goat anti-rabbit antibody (1.0%). Percent inhibition was calculated by subtracting the mean parasite/drug from the mean parasitelmedium, divided by the mean parasite/medium, all of which was multiplied by 100. The analysis was performed using MCID and an inverted microscope.
In vitro doses of drugs. Thiostrepton (Calbiochem) and Phavic (NTZ) were dissolved in sterile complete Dulbecco's Modified Eagle Medium (DMEM) supplemented with dimethyl sulfoxide (DMSO) at 0.2% and tested at concentrations of 800, 400, 200, and 100 μg/ml. NTZ was tested at concentrations of 100, 10, 1 and 0.1 μg/ml. Paromomycin (Sigma) was dissolved in DMEM and tested at concentrations of 2000, 1000, 500 and 250 μg/ml.
as §1, with “assay .” for “asset”, “plates. For some monolayers, the oocysts were incubated in DMEM on the cell monolayers for four hours, at which time the monolayers were washed and then drug was added to the wells.” for “plates.”, “parasite/medium,” for “parasitelmedium,”
In vitro doses of drugs. Thiostrepton (Calbiochem), Phavic (NTZ) were dissolved in sterile complete Dulbecco's Modified Eagle Medium (DMEM) supplemented with dimethyl sulfoxide (DMSO) at 0.2%. Thiostrepton was tested at a concentration of 800 μg/ml. NTZ was tested at a concentration of 10 μg/ml. Paromomycin was dissolved in DMEM and tested at 2000 μg/ml. Cell monolayers were infected and washed, followed by the addition of drug at time intervals of 0, 2, 4, 8 and 24 hours.
as §1, with “assay.” for “asset”, “analyze” for “analyzed”, “parasite/medium,” for “parasitelmedium,”

`NC[C@@H]1O[C@H](O[C@H]2[C@@H](O)[C@H](O[C@@H]3[C@@H](O)[C@H](N)C[C@H](N)[C@H]3O[C@H]3O[C@H](CO)[C@@H](O)[C@H](O)[C@H]3N)O[C@@H]2CO)[C@H](N)[C@@H](O)[C@@H]1O` [PRM, paromomycin] showed an inhibition at 2000 µg/mL (0 h, Table 5, 2000 μg/ml, drug added at 0 hrs, read-out: Inhibition Percent) of 77.4%, an inhibition at 2000 µg/mL (0 h, Table 5, 2000 μg/ml, drug added at 0 hrs, read-out: Inhibition Score) of 71 to 90% and an inhibition at 2000 µg/mL (2 h, Table 5, 2000 μg/ml, drug added at 2 hrs, read-out: Inhibition Percent) of 89.4%. The inhibition at 2000 µg/mL (2 h, Table 5, 2000 μg/ml, drug added at 2 hrs, read-out: Inhibition Score) was 71 to 90%, the inhibition at 250 µg/mL (4 h, Table 4 Washed at 4 hours, 250 μg/ml, read-out: Inhibition Percent) was 59.3% and the inhibition at 250 µg/mL (4 h, Table 4 Washed at 4 hours, 250 μg/ml, read-out: Inhibition Score) was 56 to 70%. For the same compound, the inhibition at 500 µg/mL (4 h, Table 4 Washed at 4 hours, 500 μg/ml, read-out: Inhibition Percent) was 69.2%, the inhibition at 500 µg/mL (4 h, Table 4 Washed at 4 hours, 500 μg/ml, read-out: Inhibition Score) was 56 to 70% and the inhibition at 1000 µg/mL (4 h, Table 4 Washed at 4 hours, 1000 μg/ml, read-out: Inhibition Percent) was 79.2%. For the same compound, the inhibition at 1000 µg/mL (4 h, Table 4 Washed at 4 hours, 1000 μg/ml, read-out: Inhibition Score) was 71 to 90%, the inhibition at 2000 µg/mL (4 h, Table 4 Washed at 4 hours, 2000 μg/ml, read-out: Inhibition Percent) was 82.5% and the inhibition at 2000 µg/mL (4 h, Table 4 Washed at 4 hours, 2000 μg/ml, read-out: Inhibition Score) was 71 to 90%. The inhibition at 2000 µg/mL (4 h, Table 5, 2000 μg/ml, drug added at 4 hrs, read-out: Inhibition Percent) was 79%, the inhibition at 2000 µg/mL (4 h, Table 5, 2000 μg/ml, drug added at 4 hrs, read-out: Inhibition Score) was 71 to 90% and the inhibition at 2000 µg/mL (8 h, Table 5, 2000 μg/ml, drug added at 8 hrs, read-out: Inhibition Percent) was 72.2%. The inhibition at 2000 µg/mL (8 h, Table 5, 2000 μg/ml, drug added at 8 hrs, read-out: Inhibition Score) was 71 to 90%, the inhibition at 2000 µg/mL (24 h, Table 5, 2000 μg/ml, drug added at 24 hrs, read-out: Inhibition Percent) was 27% and the inhibition at 2000 µg/mL (24 h, Table 5, 2000 μg/ml, drug added at 24 hrs, read-out: Inhibition Score) was 0 to 30%. The inhibition at 2000 µg/mL (Table 1, 2000 μg/ml, read-out: Inhibition Percent) was 73.2%, the inhibition at 2000 µg/mL (Table 1, 2000 μg/ml, read-out: Inhibition Score) was 71 to 90% and the inhibition at 2000 µg/mL (Table 2, 2 mg/ml, read-out: Inhibition Percent) was 69.7%. The inhibition at 2000 µg/mL (Table 2, 2 mg/ml, read-out: Inhibition Score) was 56 to 70%, the inhibition at 250 µg/mL (Table 3 Unwashed, 250 μg/ml, read-out: Inhibition Percent) was 68% and the inhibition at 250 µg/mL (Table 3 Unwashed, 250 μg/ml, read-out: Inhibition Score) was 56 to 70%. It also gave an inhibition at 500 µg/mL (Table 3 Unwashed, 500 μg/ml, read-out: Inhibition Percent) of 71.9%, an inhibition at 500 µg/mL (Table 3 Unwashed, 500 μg/ml, read-out: Inhibition Score) of 71 to 90% and an inhibition at 1000 µg/mL (Table 3 Unwashed, 1000 μg/ml, read-out: Inhibition Percent) of 79.3%. For the same compound, the inhibition at 1000 µg/mL (Table 3 Unwashed, 1000 μg/ml, read-out: Inhibition Score) was 71 to 90%, the inhibition at 2000 µg/mL (Table 3 Unwashed, 2000 μg/ml, read-out: Inhibition Percent) was 81.9% and the inhibition at 2000 µg/mL (Table 3 Unwashed, 2000 μg/ml, read-out: Inhibition Score) was 71 to 90%. For the same compound, the inhibition at 2000 µg/mL (Table 6, 2 mg/ml, read-out: Inhibition Percent) was 76.3%, the inhibition at 2000 µg/mL (Table 6, 2 mg/ml, read-out: Inhibition Score) was 71 to 90% and the “Parasite Count” value (Table 1, 2000 μg/ml) was 278.06. The “Inhibition Percent” value (Table 2, 2 mg/ml) was 76.61%, the “Inhibition Score” value (Table 2, 2 mg/ml) was 3 (3: 71-90%) and the “Parasite Count” value (Table 2, 2 mg/ml) was 423.81. The “Parasite Count” value (Table 2, 2 mg/ml, listed as PRM/DMSO) was 369.81, the “Parasite Count” value (Table 3 Unwashed, 250 μg/ml) was 453.94 and the “Parasite Count” value (Table 3 Unwashed, 500 μg/ml) was 398.31. The “Parasite Count” value (Table 3 Unwashed, 1000 μg/ml) was 293.56, the “Parasite Count” value (Table 3 Unwashed, 2000 μg/ml) was 256.38 and the “Parasite Count” value (Table 4 Washed at 4 hours, 250 μg/ml) was 492.13. For the same compound, the “Parasite Count” value (Table 4 Washed at 4 hours, 500 μg/ml) was 372.44, the “Parasite Count” value (Table 4 Washed at 4 hours, 1000 μg/ml) was 251.88 and the “Parasite Count” value (Table 4 Washed at 4 hours, 2000 μg/ml) was 211.38. For the same compound, the “Parasite Count” value (Table 5, 2000 μg/ml, drug added at 0 hrs) was 287.63, the “Parasite Count” value (Table 5, 2000 μg/ml, drug added at 2 hrs) was 134.94 and the “Parasite Count” value (Table 5, 2000 μg/ml, drug added at 4 hrs) was 267.25. The “Parasite Count” value (Table 5, 2000 μg/ml, drug added at 8 hrs) was 354.06, the “Parasite Count” value (Table 5, 2000 μg/ml, drug added at 24 hrs) was 929.19 and the “Parasite Count” value (Table 6, 2 mg/ml) was 325.75. The “activity when drug is added 24 hours after infection” value (intracellular stages only) was “activity drops”.
